Measured values as given in US20220119354A1, “DIAMINO-SUBSTITUTED PYRIDINES AND PYRIMIDINES AS HERBICIDES” (FMC Corporation, priority 2019, published 2022).

Legend:
Assay type in all cases: in vivo
[1] = system: ryegrass, Italian (Lolium multiflorum); test: Test A preemergence, Italian ryegrass; conditions: 0 to 100 scale
Outline: (§1)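 0–100 visual control rating, ~10 d post-treatment, greenhouse. Pre = directed soil spray on seeded loam/sand; post = spray at 1–2 leaf stage. Surfactant-containing solvent formulation.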

[2] = system: ragweed (common ragweed, Ambrosia elatior); test: Test A postemergence, ragweed; conditions: 0 to 100 scale
Outline: as §1

rice (Oryza sativa) = test: Test B flooded paddy test, rice; conditions: Flood, 250 g ai/ha, applied to paddy water, 2-leaf stage, visual evaluation after 13 to 15 d
Outline: (§2)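 Plants grown to 2-leaf stage. Compounds applied directly into paddy water flooded 3 cm above soil, with that depth kept throughout. After 13–15 d in greenhouse, visual rating versus controls on a 0–100 scale (0 no effect, 100 complete control).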

[3] = system: ragweed (common ragweed, Ambrosia elatior); test: Test A preemergence, ragweed; conditions: 0 to 100 scale
Outline: as §1

kochia (Kochia scoparia) [4] = test: Test A postemergence, kochia; conditions: 0 to 100 scale
Outline: as §1

[5] = system: barnyardgrass (Echinochloa crus-galli); test: Test B flooded paddy test, barnyardgrass; conditions: Flood, 250 g ai/ha, applied to paddy water, 2-leaf stage, visual evaluation after 13 to 15 d
Outline: as §2

[6] = system: pigweed (Amaranthus retroflexus); test: Test A preemergence, pigweed; conditions: 0 to 100 scale
Outline: as §1

[7] = system: foxtail, giant (Setaria faberii); test: Test A preemergence, giant foxtail; conditions: 0 to 100 scale
Outline: as §1

[8] = system: ryegrass, Italian (Lolium multiflorum); test: Test A postemergence, Italian ryegrass; conditions: 0 to 100 scale
Outline: as §1

[9] = system: galium (catchweed bedstraw, Galium aparine); test: Test A postemergence, galium; conditions: 0 to 100 scale
Outline: as §1

[10] = system: blackgrass (Alopecurus myosuroides); test: Test A postemergence, blackgrass; conditions: 0 to 100 scale
Outline: as §1

corn (Zea mays) = test: Test A postemergence, corn; conditions: 0 to 100 scale
Outline: as §1

kochia (Kochia scoparia) [11] = test: Test A preemergence, kochia; conditions: 0 to 100 scale
Outline: as §1

[12] = system: barnyardgrass (Echinochloa crus-galli); test: Test A postemergence, barnyardgrass; conditions: 0 to 100 scale
Outline: as §1

[13] = system: barnyardgrass (Echinochloa crus-galli); test: Test A preemergence, barnyardgrass; conditions: 0 to 100 scale
Outline: as §1

[14] = system: wheat (Triticum aestivum); test: Test A postemergence, wheat; conditions: 0 to 100 scale
Outline: as §1

[15] = system: pigweed (Amaranthus retroflexus); test: Test A postemergence, pigweed; conditions: 0 to 100 scale
Outline: as §1

[16] = system: sedge, umbrella (small-flower umbrella sedge, Cyperus difformis); test: Test B flooded paddy test, umbrella sedge; conditions: Flood, 250 g ai/ha, applied to paddy water, 2-leaf stage, visual evaluation after 13 to 15 d
Outline: as §2

[17] = system: foxtail, giant (Setaria faberii); test: Test A postemergence, giant foxtail; conditions: 0 to 100 scale
Outline: as §1

[18] = system: ducksalad (Heteranthera limosa); test: Test B flooded paddy test, ducksalad; conditions: Flood, 250 g ai/ha, applied to paddy water, 2-leaf stage, visual evaluation after 13 to 15 d
Outline: as §2

Compound	Plant response rating, Ryegrass, Italian ([1]; 125 g ai/ha)	Plant response rating, Ryegrass, Italian ([1]; 500 g ai/ha)	Plant response rating, Ragweed ([2]; 125 g ai/ha)	Plant response rating, Ragweed ([2]; 500 g ai/ha)	Plant response rating, Rice (0 to 100 scale, 0 is no effect, 100 is complete control) (rice (Oryza sativa))	Plant response rating, Ragweed ([3]; 125 g ai/ha)	Plant response rating, Ragweed ([3]; 500 g ai/ha)	Plant response rating, Kochia (kochia (Kochia scoparia) [4]; 125 g ai/ha)	Plant response rating, Kochia (kochia (Kochia scoparia) [4]; 500 g ai/ha)	Plant response rating, Barnyardgrass (0 to 100 scale, 0 is no effect, 100 is complete control) [5]	Plant response rating, Pigweed ([6]; 125 g ai/ha)	Plant response rating, Pigweed ([6]; 500 g ai/ha)	Plant response rating, Foxtail, Giant ([7]; 125 g ai/ha)	Plant response rating, Foxtail, Giant ([7]; 500 g ai/ha)	Plant response rating, Ryegrass, Italian ([8]; 125 g ai/ha)	Plant response rating, Ryegrass, Italian ([8]; 500 g ai/ha)	Plant response rating, Galium ([9]; 125 g ai/ha)	Plant response rating, Galium ([9]; 500 g ai/ha)	Plant response rating, Blackgrass ([10]; 125 g ai/ha)	Plant response rating, Blackgrass ([10]; 500 g ai/ha)	further results
C[C@H](Nc1ncc(C(F)(F)F)c(N)n1)c1cc2ccccc2s1 [Compound 5]	20	20	0	10	0	0	0	0	20	0	0	50	0	10	0	0	0	40	0	0	Plant response rating, Corn (corn (Zea mays); 125 g ai/ha): 10; Plant response rating, Corn (corn (Zea mays); 500 g ai/ha): 0; Plant response rating, Kochia (kochia (Kochia scoparia) [11]; 125 g ai/ha): 0; Plant response rating, Kochia (kochia (Kochia scoparia) [11]; 500 g ai/ha): 0; Plant response rating, Barnyardgrass ([12]; 125 g ai/ha): 0; Plant response rating, Barnyardgrass ([12]; 500 g ai/ha): 0; Plant response rating, Barnyardgrass ([13]; 125 g ai/ha): 0; Plant response rating, Barnyardgrass ([13]; 500 g ai/ha): 0; Plant response rating, Wheat ([14]; 125 g ai/ha): 0; Plant response rating, Wheat ([14]; 500 g ai/ha): 0; Plant response rating, Pigweed ([15]; 125 g ai/ha): 20; Plant response rating, Pigweed ([15]; 500 g ai/ha): 90; Plant response rating, Sedge, Umbrella (0 to 100 scale, 0 is no effect, 100 is complete control) [16]: 0; Plant response rating, Foxtail, Giant ([17]; 125 g ai/ha): 0; Plant response rating, Foxtail, Giant ([17]; 500 g ai/ha): 0; Plant response rating, Ducksalad (0 to 100 scale, 0 is no effect, 100 is complete control) [18]: 0
C[C@@H](Nc1ncc(C(F)(F)F)c(N)n1)c1cc2cc(C(F)(F)F)ccc2o1 [Compound 7]	0	0	0	0	0	0	0	0	0	0	0	30	0	0	0	0	0	20	0	0	Plant response rating, Corn (corn (Zea mays); 125 g ai/ha): 0; Plant response rating, Corn (corn (Zea mays); 500 g ai/ha): 0; Plant response rating, Kochia (kochia (Kochia scoparia) [11]; 125 g ai/ha): 0; Plant response rating, Kochia (kochia (Kochia scoparia) [11]; 500 g ai/ha): 0; Plant response rating, Barnyardgrass ([12]; 125 g ai/ha): 0; Plant response rating, Barnyardgrass ([12]; 500 g ai/ha): 0; Plant response rating, Barnyardgrass ([13]; 125 g ai/ha): 0; Plant response rating, Barnyardgrass ([13]; 500 g ai/ha): 0; Plant response rating, Wheat ([14]; 125 g ai/ha): 0; Plant response rating, Wheat ([14]; 500 g ai/ha): 0; Plant response rating, Pigweed ([15]; 125 g ai/ha): 30; Plant response rating, Pigweed ([15]; 500 g ai/ha): 90; Plant response rating, Sedge, Umbrella (0 to 100 scale, 0 is no effect, 100 is complete control) [16]: 0; Plant response rating, Foxtail, Giant ([17]; 125 g ai/ha): 0; Plant response rating, Foxtail, Giant ([17]; 500 g ai/ha): 0; Plant response rating, Ducksalad (0 to 100 scale, 0 is no effect, 100 is complete control) [18]: 0
